According to patent US9493455B2, “Azaindole derivatives as inhibitors of protein kinases” (ORIBASE PHARMA, priority 2012, dated 2016):

Legend:
BRAF = biological target: T1, BRAF (Homo sapiens, UniProt P15056); assay: In vitro kinase assay (Z′-LYTE); format: biochemical; settings: compound 100 nM; ATP 100 μM; read-out: % of inhibition of the kinase compared to the control
T1 construct: purchased Invitrogen
Method: (§1) The inhibitory activity of the compounds on several kinases including BRAF, EGFR (ErbB1), EGFR (ErbB1) T790M L858R, FGFR2, KDR (VEGFR2), PDGFRA (PDGFR alpha), SRC and other was evaluated by Invitrogen using the Z′-LYTE® technology. Briefly, the Z′-LYTE® biochemical assay employs a fluorescence-based, coupled-enzyme format and is based on the differential sensitivity of phosphorylated and non-phosphorylated peptides to proteolytic cleavage. The peptide substrate is labeled with two fluorophores—one at each end—that make up a FRET pair. A ratiometric method, which calculates the ratio (the Emission Ratio) of donor emission to acceptor emission after excitation of the donor fluorophore at 400 nm, is used to quantitate reaction progress.
(§2) The compounds are screened in 1% DMSO (final) in the well. For 10 point titrations, 3-fold serial dilutions are conducted from the starting concentration. All Peptide/Kinase Mixtures are diluted to a 2× working concentration in the appropriate Kinase Buffer. All ATP Solutions are diluted to a 4× working concentration in Kinase Buffer (50 mM HEPES pH 7.5, 0.01% BRIJ-35, 10 mM MgCl2, 1 mM EGTA). ATP Km apparent is previously determined using a Z′-LYTE® assay.
(§3) Each compound was incubated at a concentration of 100 nM (excepted to test the activity against ABL and ABL T315I for which the compounds were incubated at a concentration of 10 μM) and the tables B1 to B12 summarize the results obtained showing the inhibitory power of a compound. The inhibitory activity of OR0512 was also investigated using the same assays and the kinases for which activity was inhibited at more than 50% at the concentration of 100 nM of OR0512 are listed in the table B13.

FGFR2 = biological target: T2, FGFR2 (Homo sapiens, UniProt P21802); assay: In vitro kinase assay (Z′-LYTE); format: biochemical; settings: read-out: % of inhibition of the kinase compared to the control
T2 construct: purchased Invitrogen
Method: as §1, §2, §3

EGFR (ErbB1) = biological target: T3, EGFR (ErbB1) (Homo sapiens, UniProt P00533); assay: In vitro kinase assay (Z′-LYTE); format: biochemical; settings: read-out: % of inhibition of the kinase compared to the control
T3 construct: purchased Invitrogen
Method: as §1, §2, §3

KDR (VEGFR2) = biological target: T4, KDR (VEGFR2) (Homo sapiens, UniProt P35968); assay: In vitro kinase assay (Z′-LYTE); format: biochemical; settings: read-out: % of inhibition of the kinase compared to the control
T4 construct: purchased Invitrogen
Method: as §1, §2, §3

HuH7 = assay: In vitro cell proliferation assay (MTT); format: cell-based; settings: Homo sapiens, Huh-7, 72 h
Method: (§4) Cancer cell lines (5×10^3 cells per well) or HUVEC (1×10^4 cells per well) or HRMEC (1×10^4 cells per well) were distributed in 96-well plates and incubating in duplicate with escalating concentrations (10 nM to 3 μM) of compounds for 72 hr. Cell proliferation was measured using MTT (3 [4,5-dimethylthiazol-2-yl]-2,5-diphenyltetrazolium bromide).

HepG2 = assay: In vitro cell proliferation assay (MTT); format: cell-based; settings: Homo sapiens, HepG2, 72 h
Method: as §4

HUVEC = assay: In vitro cell proliferation assay (MTT); format: cell-based; settings: Homo sapiens, 72 h
Method: as §4

PDGFRA (PDGFR alpha) = biological target: T5, PDGFRA (PDGFR alpha) (Homo sapiens, UniProt P16234); assay: In vitro kinase assay (Z′-LYTE); format: biochemical; settings: read-out: % of inhibition of the kinase compared to the control
T5 construct: purchased Invitrogen
Method: as §1, §2, §3

SRC = biological target: T6, SRC (Homo sapiens, UniProt P12931); assay: In vitro kinase assay (Z′-LYTE); format: biochemical; settings: read-out: % of inhibition of the kinase compared to the control
T6 construct: purchased Invitrogen
Method: as §1, §2, §3

EGFR (ErbB1) T790M L858R = biological target: T7, EGFR (ErbB1) T790M L858R (Homo sapiens, UniProt P00533, L858R/T790M); assay: In vitro kinase assay (Z′-LYTE); format: biochemical; settings: read-out: % of inhibition of the kinase compared to the control
T7 construct: purchased Invitrogen
Method: as §1, §2, §3

FGFR1 = biological target: T8, FGFR1 (Homo sapiens, UniProt P11362); assay: In vitro kinase assay (Z′-LYTE); format: biochemical; settings: read-out: % of inhibition of the kinase compared to the control
T8 construct: purchased Invitrogen
Method: as §1, §2, §3

ABL T315I = biological target: T9, ABL T315I (Homo sapiens, UniProt P00519, T315I); assay: In vitro kinase assay (Z′-LYTE); format: biochemical; settings: read-out: % of inhibition of the kinase compared to the control
T9 construct: purchased Invitrogen
Method: as §1, §2, §3

ABL = biological target: T10, ABL (Homo sapiens, UniProt P00519); assay: In vitro kinase assay (Z′-LYTE); format: biochemical; settings: read-out: % of inhibition of the kinase compared to the control
T10 construct: purchased Invitrogen
Method: as §1, §2, §3

PDGFRB = biological target: T11, PDGFRB (Homo sapiens, UniProt P09619); assay: In vitro kinase assay (Z′-LYTE); format: biochemical; settings: read-out: % of inhibition of the kinase compared to the control
T11 construct: purchased Invitrogen
Method: as §1, §2, §3

VEGFR1 = biological target: T12, VEGFR1 (Homo sapiens, UniProt P17948); assay: In vitro kinase assay (Z′-LYTE); format: biochemical; settings: read-out: % of inhibition of the kinase compared to the control
T12 construct: purchased Invitrogen
Method: as §1, §2, §3

BxPC-3 = assay: In vitro cell proliferation assay (MTT); format: cell-based; settings: Homo sapiens, BXPC-3, 72 h
Method: as §4

HT29 = assay: In vitro cell proliferation assay (MTT); format: cell-based; settings: Homo sapiens, HT-29, 72 h
Method: as §4

A549 = assay: In vitro cell proliferation assay (MTT); format: cell-based; settings: Homo sapiens, A549, 72 h
Method: as §4

H1975 = assay: In vitro cell proliferation assay (MTT); format: cell-based; settings: Homo sapiens, NCI-H1975, 72 h
Method: as §4

T1 sequence (P15056 whole entry): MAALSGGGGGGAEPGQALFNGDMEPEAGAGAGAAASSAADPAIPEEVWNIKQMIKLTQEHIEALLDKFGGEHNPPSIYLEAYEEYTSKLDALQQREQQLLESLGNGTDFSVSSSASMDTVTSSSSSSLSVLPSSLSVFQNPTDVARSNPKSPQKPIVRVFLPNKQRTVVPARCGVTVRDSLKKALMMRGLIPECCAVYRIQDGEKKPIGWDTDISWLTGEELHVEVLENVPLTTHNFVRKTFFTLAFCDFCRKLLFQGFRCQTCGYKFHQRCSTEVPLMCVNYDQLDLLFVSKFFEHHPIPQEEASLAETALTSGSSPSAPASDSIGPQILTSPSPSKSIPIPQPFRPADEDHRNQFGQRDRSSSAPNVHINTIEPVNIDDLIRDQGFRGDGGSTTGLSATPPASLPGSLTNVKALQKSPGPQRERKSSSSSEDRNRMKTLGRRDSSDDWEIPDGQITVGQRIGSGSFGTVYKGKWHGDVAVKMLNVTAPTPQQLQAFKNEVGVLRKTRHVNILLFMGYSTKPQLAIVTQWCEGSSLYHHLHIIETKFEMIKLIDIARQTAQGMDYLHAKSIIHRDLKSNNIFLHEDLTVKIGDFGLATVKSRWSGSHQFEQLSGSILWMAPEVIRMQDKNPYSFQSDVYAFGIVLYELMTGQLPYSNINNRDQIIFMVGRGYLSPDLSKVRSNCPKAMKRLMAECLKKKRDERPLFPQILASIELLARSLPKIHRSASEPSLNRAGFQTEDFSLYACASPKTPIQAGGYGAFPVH
T6 sequence (P12931 whole entry): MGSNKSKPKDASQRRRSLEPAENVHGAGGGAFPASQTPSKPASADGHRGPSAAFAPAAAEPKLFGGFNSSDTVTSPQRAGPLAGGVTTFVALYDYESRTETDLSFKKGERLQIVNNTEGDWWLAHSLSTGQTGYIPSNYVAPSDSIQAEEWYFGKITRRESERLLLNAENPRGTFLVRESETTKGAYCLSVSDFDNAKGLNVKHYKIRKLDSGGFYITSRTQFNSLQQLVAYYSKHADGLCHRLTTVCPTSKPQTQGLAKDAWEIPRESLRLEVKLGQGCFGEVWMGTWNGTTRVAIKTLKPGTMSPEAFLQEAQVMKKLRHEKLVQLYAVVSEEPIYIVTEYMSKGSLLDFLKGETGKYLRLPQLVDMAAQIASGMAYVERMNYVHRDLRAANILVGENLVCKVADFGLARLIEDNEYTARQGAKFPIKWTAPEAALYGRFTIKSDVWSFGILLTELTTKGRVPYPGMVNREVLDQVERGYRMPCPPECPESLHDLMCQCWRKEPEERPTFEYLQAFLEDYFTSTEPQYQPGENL
T3 sequence (P00533 25-1210): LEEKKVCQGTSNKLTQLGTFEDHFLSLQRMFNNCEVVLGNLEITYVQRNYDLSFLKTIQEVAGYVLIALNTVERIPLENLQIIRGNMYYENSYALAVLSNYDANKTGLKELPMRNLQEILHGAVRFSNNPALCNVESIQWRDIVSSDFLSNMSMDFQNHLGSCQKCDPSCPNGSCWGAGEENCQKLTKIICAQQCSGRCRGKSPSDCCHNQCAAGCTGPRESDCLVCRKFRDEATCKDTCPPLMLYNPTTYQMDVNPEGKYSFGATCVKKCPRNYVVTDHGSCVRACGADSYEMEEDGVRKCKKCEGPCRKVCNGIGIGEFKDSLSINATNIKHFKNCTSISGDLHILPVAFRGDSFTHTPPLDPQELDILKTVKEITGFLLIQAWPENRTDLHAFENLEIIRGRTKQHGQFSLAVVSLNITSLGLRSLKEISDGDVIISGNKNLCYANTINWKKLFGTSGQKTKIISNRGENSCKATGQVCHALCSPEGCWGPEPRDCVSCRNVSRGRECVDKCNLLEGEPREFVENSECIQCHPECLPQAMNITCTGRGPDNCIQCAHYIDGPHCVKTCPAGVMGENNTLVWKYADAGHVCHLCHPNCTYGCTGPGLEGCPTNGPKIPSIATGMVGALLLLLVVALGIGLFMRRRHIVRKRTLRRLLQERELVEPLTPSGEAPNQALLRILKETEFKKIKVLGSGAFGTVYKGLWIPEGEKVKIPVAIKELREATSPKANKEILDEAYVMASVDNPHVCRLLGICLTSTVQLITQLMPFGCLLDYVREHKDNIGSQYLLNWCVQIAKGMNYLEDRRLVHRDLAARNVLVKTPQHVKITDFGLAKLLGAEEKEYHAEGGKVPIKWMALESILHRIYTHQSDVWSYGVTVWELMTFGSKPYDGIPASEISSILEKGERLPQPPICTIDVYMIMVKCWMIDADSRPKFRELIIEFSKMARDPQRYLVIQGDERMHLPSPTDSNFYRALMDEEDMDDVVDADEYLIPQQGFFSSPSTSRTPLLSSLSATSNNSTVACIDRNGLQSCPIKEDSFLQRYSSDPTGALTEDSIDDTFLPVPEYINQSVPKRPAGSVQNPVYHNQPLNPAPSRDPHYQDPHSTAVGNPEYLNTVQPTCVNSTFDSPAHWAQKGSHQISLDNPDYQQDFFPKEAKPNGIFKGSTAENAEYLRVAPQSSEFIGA
T5 sequence (P16234 24-1089): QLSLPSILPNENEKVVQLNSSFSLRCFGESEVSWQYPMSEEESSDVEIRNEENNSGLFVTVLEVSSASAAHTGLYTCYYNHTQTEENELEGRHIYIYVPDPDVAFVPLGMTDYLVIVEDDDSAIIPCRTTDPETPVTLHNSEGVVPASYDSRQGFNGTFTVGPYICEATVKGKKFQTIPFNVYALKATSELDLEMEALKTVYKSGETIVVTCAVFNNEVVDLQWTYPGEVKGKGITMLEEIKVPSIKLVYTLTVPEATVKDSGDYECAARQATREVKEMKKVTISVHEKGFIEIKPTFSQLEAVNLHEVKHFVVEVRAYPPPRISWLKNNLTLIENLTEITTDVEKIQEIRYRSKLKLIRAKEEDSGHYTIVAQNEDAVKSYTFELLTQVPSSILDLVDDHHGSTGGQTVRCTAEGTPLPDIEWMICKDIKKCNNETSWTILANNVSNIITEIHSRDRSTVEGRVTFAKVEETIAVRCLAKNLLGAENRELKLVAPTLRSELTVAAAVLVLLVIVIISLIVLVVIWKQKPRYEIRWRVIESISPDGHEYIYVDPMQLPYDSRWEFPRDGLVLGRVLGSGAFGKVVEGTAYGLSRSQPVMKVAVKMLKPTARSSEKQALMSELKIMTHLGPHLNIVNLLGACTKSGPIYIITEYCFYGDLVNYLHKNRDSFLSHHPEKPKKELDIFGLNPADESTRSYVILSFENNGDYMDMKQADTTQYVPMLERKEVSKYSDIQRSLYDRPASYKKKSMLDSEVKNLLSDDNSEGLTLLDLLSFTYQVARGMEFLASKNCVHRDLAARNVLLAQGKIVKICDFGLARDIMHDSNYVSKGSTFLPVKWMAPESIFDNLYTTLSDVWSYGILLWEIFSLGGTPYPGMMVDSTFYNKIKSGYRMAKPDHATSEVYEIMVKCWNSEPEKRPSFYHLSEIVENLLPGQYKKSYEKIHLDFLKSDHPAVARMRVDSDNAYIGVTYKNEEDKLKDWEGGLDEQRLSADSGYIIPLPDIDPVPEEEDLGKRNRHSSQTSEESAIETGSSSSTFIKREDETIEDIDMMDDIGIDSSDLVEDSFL
T11 sequence (P09619 33-1106): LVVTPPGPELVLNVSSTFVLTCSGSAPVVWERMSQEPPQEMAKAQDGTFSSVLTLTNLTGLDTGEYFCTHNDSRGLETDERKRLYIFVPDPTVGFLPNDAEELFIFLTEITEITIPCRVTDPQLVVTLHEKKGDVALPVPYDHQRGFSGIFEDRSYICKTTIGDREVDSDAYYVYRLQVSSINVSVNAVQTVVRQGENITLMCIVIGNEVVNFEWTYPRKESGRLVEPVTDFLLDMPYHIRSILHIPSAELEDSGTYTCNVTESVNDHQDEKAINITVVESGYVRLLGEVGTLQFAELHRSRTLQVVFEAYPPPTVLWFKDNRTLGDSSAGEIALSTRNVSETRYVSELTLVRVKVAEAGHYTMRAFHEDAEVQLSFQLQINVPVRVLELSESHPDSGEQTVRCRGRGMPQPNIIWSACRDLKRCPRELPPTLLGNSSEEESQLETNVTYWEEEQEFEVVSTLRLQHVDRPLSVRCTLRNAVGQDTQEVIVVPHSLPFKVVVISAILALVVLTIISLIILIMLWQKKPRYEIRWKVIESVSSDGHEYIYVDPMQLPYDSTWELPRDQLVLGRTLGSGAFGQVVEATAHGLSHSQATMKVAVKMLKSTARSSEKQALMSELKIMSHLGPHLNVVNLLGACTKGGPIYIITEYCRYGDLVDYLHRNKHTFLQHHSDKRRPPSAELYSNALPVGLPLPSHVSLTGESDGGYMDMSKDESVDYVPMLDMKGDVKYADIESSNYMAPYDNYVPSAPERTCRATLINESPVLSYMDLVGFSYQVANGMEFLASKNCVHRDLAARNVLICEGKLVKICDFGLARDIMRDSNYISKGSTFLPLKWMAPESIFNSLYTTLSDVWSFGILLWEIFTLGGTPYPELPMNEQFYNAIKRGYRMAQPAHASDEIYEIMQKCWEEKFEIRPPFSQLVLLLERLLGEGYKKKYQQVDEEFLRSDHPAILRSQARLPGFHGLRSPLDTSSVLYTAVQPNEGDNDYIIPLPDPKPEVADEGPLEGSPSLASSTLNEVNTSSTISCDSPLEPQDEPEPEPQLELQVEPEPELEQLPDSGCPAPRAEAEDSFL

| Structure (SMILES) | inhibition at 0.1 µM (BRAF) | inhibition at 0.1 µM (FGFR2) | inhibition at 0.1 µM (EGFR (ErbB1)) | inhibition at 0.1 µM (KDR (VEGFR2)) | EC50 (HuH7) | EC50 (HepG2) | EC50 (HUVEC) | inhibition at 0.1 µM (PDGFRA (PDGFR alpha)) | inhibition at 0.1 µM (SRC) | inhibition at 0.1 µM (EGFR (ErbB1) T790M L858R) | inhibition at 0.1 µM (FGFR1) | inhibition at 10 µM (ABL T315I) | inhibition at 10 µM (ABL) | inhibition at 0.1 µM (PDGFRB) | inhibition at 0.1 µM (VEGFR1) | EC50 (BxPC-3) | EC50 (HT29) | EC50 (A549) | EC50 (H1975) |
| --- | --- | --- | --- | --- | --- | --- | --- | --- | --- | --- | --- | --- | --- | --- | --- | --- | --- | --- | --- |
| COC(=O)c1cc2cc(NCc3cc(NC(=O)c4ccnc(C)c4)ccc3C)cnc2[nH]1 [OR0868] | ≥ 50% | < 50% | < 50% | < 50% | ≥ 1000 nM | ≥ 1000 nM | 100 to 1000 nM |  |  |  |  |  |  |  |  |  |  |  |  |
| COC(=O)c1cc2cc(NCc3cc(NS(=O)(=O)c4cccc(C(F)(F)F)c4)ccc3C)cnc2[nH]1 [OR0882] | < 50% | < 50% | < 50% | < 50% | ≥ 1000 nM | ≥ 1000 nM | ≥ 1000 nM | < 50% |  |  |  |  |  |  |  |  |  |  |  |
| COC(=O)c1cc2cc(NCc3cc(NC(=O)c4ccc(C)c(C(F)(F)F)c4)ccc3C)cnc2[nH]1 [OR0869] | < 50% | < 50% | ≥ 50% | < 50% | 100 to 1000 nM | ≥ 1000 nM | 100 to 1000 nM | < 50% | ≥ 50% |  |  |  |  |  |  |  |  |  |  |
| COC(=O)c1cc2cc(NCc3cc(NC(=O)c4ccc(CN5CCN(C)CC5)c(C(F)(F)F)c4)ccc3F)cnc2[nH]1 [OR0816] | < 50% | ≥ 50% | ≥ 50% | ≥ 50% | 100 to 1000 nM | 100 to 1000 nM | ≤ 100 nM | ≥ 50% | ≥ 50% |  |  |  |  |  |  |  |  |  |  |
| COC(=O)c1cc2cc(NCc3cc(NC(=O)c4cncc(C)c4)ccc3C)cnc2[nH]1 [OR0867] | ≥ 50% | < 50% | ≥ 50% | ≥ 50% | ≥ 1000 nM | 100 to 1000 nM | ≥ 1000 nM |  |  |  |  |  |  |  |  |  |  |  |  |
| COC(=O)c1cc2cc(NCc3cc(NC(=O)c4ccc(C(F)(F)F)nc4)ccc3C)cnc2[nH]1 [OR0865] | ≥ 50% | < 50% | ≥ 50% | < 50% | ≥ 1000 nM | 100 to 1000 nM | 100 to 1000 nM |  |  |  |  |  |  |  |  |  |  |  |  |
| COC(=O)c1cc2cc(NCc3ccc(C)c(NC(=O)c4ccc(CN5CCN(C)CC5)c(C(F)(F)F)c4)c3)cnc2[nH]1 [OR0622] | < 50% | ≥ 50% | < 50% | ≥ 50% |  | ≥ 1000 nM | 100 to 1000 nM | ≥ 50% | ≥ 50% | < 50% | ≥ 50% | ≥ 50% | ≥ 50% | < 50% | < 50% | ≥ 1000 nM | ≥ 1000 nM | ≥ 1000 nM | ≥ 1000 nM |
| COC(=O)c1cc2cc(NCc3cc(NC(=O)Cc4cccc(C(F)(F)F)c4)ccc3C)cnc2[nH]1 [OR0601] | ≥ 50% | < 50% | < 50% | < 50% |  | ≤ 100 nM | ≤ 100 nM | ≥ 50% | ≥ 50% | < 50% | < 50% | < 50% | ≥ 50% | < 50% | < 50% | ≥ 1000 nM | 100 to 1000 nM | 100 to 1000 nM | ≥ 1000 nM |
| COC(=O)c1cc2cc(NCc3cc(NC(=O)c4ccc(CN5CCOCC5)c(C(F)(F)F)c4)ccc3C)cnc2[nH]1 [OR0598] | < 50% | < 50% | ≥ 50% | < 50% |  | 100 to 1000 nM | ≤ 100 nM | ≥ 50% | ≥ 50% | < 50% | < 50% | ≥ 50% | ≥ 50% | < 50% | < 50% | 100 to 1000 nM | 100 to 1000 nM | 100 to 1000 nM | 100 to 1000 nM |
| COC(=O)c1cc2cc(NCc3cc(NC(=O)c4ccnc(C(F)(F)F)c4)ccc3C)cnc2[nH]1 [OR0866] | < 50% | < 50% | < 50% | < 50% | ≥ 1000 nM | 100 to 1000 nM | 100 to 1000 nM | < 50% |  |  |  |  |  |  |  |  |  |  |  |
| COC(=O)c1cc2cc(NCc3cc(NC(=O)c4ccc(CNCCN5CCN(C)CC5)c(C(F)(F)F)c4)ccc3C)cnc2[nH]1 [OR0637] | ≥ 50% | < 50% | ≥ 50% | ≥ 50% |  | 100 to 1000 nM | 100 to 1000 nM | ≥ 50% | ≥ 50% | ≥ 50% | < 50% | ≥ 50% | ≥ 50% | ≥ 50% | < 50% | ≥ 1000 nM | 100 to 1000 nM | 100 to 1000 nM | ≥ 1000 nM |
| COC(=O)c1cc2cc(NCc3cc(NC(=O)c4ccc(Cl)c(C(F)(F)F)c4)ccc3C)cnc2[nH]1 [OR0871] | < 50% | < 50% | ≥ 50% | < 50% | 100 to 1000 nM | 100 to 1000 nM | 100 to 1000 nM | ≥ 50% | ≥ 50% |  |  |  |  |  |  |  |  |  |  |
